Eleven molecules from PMC3164656, “Burkholderia cenocepacia BC2L-C Is a Super Lectin with Dual Specificity and Proinflammatory Activity” (PLoS Pathogens, 2011) can be followed below.

For test [1], the target named is T1, BC2L-C (Burkholderia cenocepacia, UniProt B4EH86).
T1 sequence (B4EH86 1-272): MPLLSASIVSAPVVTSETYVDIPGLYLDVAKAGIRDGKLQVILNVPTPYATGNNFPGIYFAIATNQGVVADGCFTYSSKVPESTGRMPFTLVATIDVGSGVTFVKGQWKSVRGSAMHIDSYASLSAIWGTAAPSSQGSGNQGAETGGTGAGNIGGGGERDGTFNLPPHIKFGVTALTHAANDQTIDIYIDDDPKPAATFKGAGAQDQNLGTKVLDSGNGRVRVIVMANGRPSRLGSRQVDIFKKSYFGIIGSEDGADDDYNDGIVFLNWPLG
The experiment in a line: Isothermal titration microcalorimetry, binding of saccharides to whole BC2L-C. The settings on record: ITC, 25°C; for Kd / n (stoichiometry): 20 mM Tris pH 7.5. (In general: Isothermal titration calorimetry measures the heat released or taken up as one component is titrated into another.)

The target in test [2] is T2, BC2L-C-ct (Burkholderia cenocepacia, UniProt B4EH86).
T2 sequence (B4EH86 158-272): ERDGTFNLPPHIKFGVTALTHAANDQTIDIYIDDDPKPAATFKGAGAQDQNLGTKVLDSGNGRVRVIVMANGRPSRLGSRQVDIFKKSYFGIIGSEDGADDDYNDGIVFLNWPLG
Description: Glycan array (Consortium for Functional Glycomics), C-terminal domain. The test is classed as binding. The following applies: Alexa-labelled lectin 200 µg/mL, array version 3.2. From the text: Purified BC2L-C lectin samples were labeled with Alexa Fluor 488-TFP (Invitrogen, CA) according to manufacturer's instructions and re-purified on a D-Salt polyacrylamide desalting column (Pierce, Rockford IL). Alexa-labeled proteins were used for glycan-array screening with standard procedure of the Core H of the Consortium for Functional Glycomics (Emory University, Atlanta, GA, http://www.functionalglycomics.org). The screening of the printed glycan microarray chip (version 3.2, with 377 glycans from a library of natural and synthetic glycans) was performed with a concentration of BC2L-C of 200 µg/mL dissolved in 20 mM HEPES, 140 mM NaCl, 5 mM CaCl2, pH 7.5 for all samples.

Test [3] addresses T2, BC2L-C-ct. The experiment in a line: Isothermal titration microcalorimetry, binding of saccharides to BC2L-C-ct. The settings on record: ITC, 25°C; for Kd / n (stoichiometry): 20 mM Tris pH 7.5.
The target of test [4] is T1, BC2L-C. Description: SPR on monosaccharide-activated surfaces, whole lectin. The test is classed as binding. The settings on record: CM5 chip, Biot-PAA-monosaccharide, 25°C.
Test [5] has as its target T2, BC2L-C-ct. The experiment in a line: SPR on monosaccharide-activated surfaces, C-terminal domain. The test is classed as binding. The settings on record: CM5 chip, Biot-PAA-monosaccharide, 25°C.

Values joined by “and” are separate entries in the source; they are usually repeats but may differ in a detail not shown here. Equal entries are not always repeated.

In general, Kd refers to the concentration at which binding is half-saturated. Consider `CC(=O)N[C@H]1C(O)O[C@H](CO)[C@@H](O[C@@H]2O[C@H](CO)[C@H](O)[C@H](O)[C@H]2O[C@@H]2O[C@@H](C)[C@@H](O)[C@@H](O)[C@@H]2O)[C@@H]1O[C@@H]1O[C@@H](C)[C@@H](O)[C@@H](O)[C@@H]1O` (stereo partly drawn) [Lewis Y], for which, at BC2L-C [1], the “-TΔS” value came to 3.87 kcal/mol; the “-ΔH” value turned out to be 9.78 kcal/mol; binding was characterised by a dissociation constant (Kd) of 47.5 µM; the “n (stoichiometry)” value is 1 and 1.01.

For the molecule Manα1–6Man, on BC2L-C-ct [2], the “recognition on glycan array” value is “recognised”.

On to `OC[C@H]1OC(O)[C@@H](O)[C@@H](O)[C@@H]1O` (stereo partly drawn) [D-Man, D-mannose], for which, at BC2L-C-ct [3], the “-TΔS” value was 7.6 kcal/mol, the “-ΔH” value turned out to be 13.6 kcal/mol, the Kd was 37.4 µM and the “n (stoichiometry)” value is given as 0.50. The “n (stoichiometry)” value on BC2L-C-ct [3] (listed as Man) is given as roughly 0.5. At BC2L-C [1], the “-TΔS” value came out at 8.25 kcal/mol, binding was characterised by a dissociation constant (Kd) of 21.8 µM and the “n (stoichiometry)” value is listed as 0.57. On BC2L-C [4], the “binding of the lectin to sugar-modified surface (SPR)” value (“binding of the lectin” for short) is on record as “interacts strongly”. Besides, the “binding of the C-terminal domain to sugar-modified surface (SPR)” value at BC2L-C-ct [5] is reported as “binds only to mannose-coated chips”. At BC2L-C-ct [2], the “recognition on glycan array” value was “shortest fragment recognized, albeit not efficiently”.

As to `C[C@H](O)[C@@H](O)[C@@H](O)[C@H](O)C=O` [fucose], the “binding of the lectin” value on BC2L-C [4] is “interacts strongly”.

`CO[C@H]1O[C@H]([C@@H](O)CO)[C@@H](O)[C@H](O)[C@@H]1O` [αMeHept, Methyl L-glycero-α-D-manno-heptopyranoside]: on BC2L-C-ct [3], the “-TΔS” value came to 4.9 kcal/mol, the “-ΔH” value worked out at 10.1 kcal/mol, binding was put at a Kd of 150 µM and the “n (stoichiometry)” value is on record as 0.56.

`OC[C@H]1O[C@H](OC[C@H]2OC(O)[C@@H](O)[C@@H](O[C@H]3O[C@H](CO)[C@@H](O)[C@H](O)[C@@H]3O)[C@@H]2O)[C@@H](O)[C@@H](O)[C@@H]1O` (stereo partly drawn) [Trimannose, Manα1-3(Manα1-6)Man]: on BC2L-C-ct [3], the “-TΔS” value worked out at 23.3 kcal/mol, the “-ΔH” value was determined as 29.45 kcal/mol, the Kd is 28.8 µM and the “n (stoichiometry)” value is recorded as 0.22.

On to `C=CCO[C@H]1O[C@H]([C@@H](O)CO)[C@@H](O)[C@H](O[C@H]2O[C@H]([C@@H](O)CO)[C@@H](O)[C@H](O)[C@@H]2O)[C@@H]1O` [Diheptose, allyl L-glycero-α-D-manno-heptopyranosyl-(1→3)-L-glycero-α-D-manno-heptopyranoside], for which, on BC2L-C-ct [3], the “-TΔS” value came to 3.82 kcal/mol; the Kd is 88 µM and 88.1 µM; the “n (stoichiometry)” value is 0.48.

With `COC1O[C@H](CO)[C@@H](O)[C@H](O)[C@@H]1O` (stereo partly drawn) [αMeMan, α-methyl-mannoside], at BC2L-C-ct [3], the “-TΔS” value was 6.93 kcal/mol, the “-ΔH” value turned out to be 13.1 kcal/mol, the dissociation constant Kd was determined as 27.6 µM and the “n (stoichiometry)” value came to 0.52. Further, on BC2L-C [1], the “-TΔS” value turned out to be 11.1 kcal/mol, the “-ΔH” value worked out at 17.6 kcal/mol, the equilibrium dissociation constant (Kd) is 18.3 µM and the “n (stoichiometry)” value is 0.49.

Consider Manα1–2Man, for which the “recognition on glycan array” value at BC2L-C-ct [2] is listed as “recognised”.

Regarding Manα1–3Man, the “recognition on glycan array” value at BC2L-C-ct [2] was “recognised”.

Turning to `O=C[C@H](O)[C@@H](O)[C@@H](O)[C@H](O)CO` [galactose], the “binding of the lectin” value on BC2L-C [4] is recorded as “not by galactose”.
